Experimental data published in patent publication US20250345253A1 (priority 2024, published 2025).

Assay: In vitro whitening and cleaning of stained test samples

Structure (SMILES): O=c1nc([O-])n(Cl)c(=O)n1Cl.[Na+] [dichloroisocyanurate]
- Whitening and cleaning performance versus hydrogen peroxide solutions and salts (compared with cleaning solutions of up to 25% hydrogen peroxide and hydrogen peroxide salts (sodium perborate)): outperformed both hydrogen peroxide cleaning solutions of up to 25% hydrogen peroxide and hydrogen peroxide salts (sodium perborate)
- Whitening and cleaning of stained test samples (compared with other cleaning formulations containing hydrogen peroxide): whitened and cleaned stained test samples better than other cleaning formulations containing hydrogen peroxide
